Experiments:
LCK = LCK (Homo sapiens (Human), UniProt P06239); experiment: In vitro assay: kinase binding to immobilized ligand, captured kinase measured by qPCR
Source text: Example B-1: In Vitro Assay
Compounds that bind the kinase active site and directly (sterically) or indirectly (allosterically) prevent kinase binding to an immobilized ligand and reduce the amount of kinase captured on the solid support. Screening “hits” were identified by measuring the amount of kinase captured in test versus control samples by using a quantitative, precise and ultra-sensitive qPCR method that detect the associated DNA label. In a similar manner, dissociation constants (Kd's) for test compound-kinase interactions were calculated by measuring the amount of kinase captured on the solid support as a function of the test compound concentration.

PKMYT1 = PKMYT1 (Homo sapiens (Human), UniProt Q99640); experiment: as above
Sequence of PKMYT1 (Q99640 whole entry): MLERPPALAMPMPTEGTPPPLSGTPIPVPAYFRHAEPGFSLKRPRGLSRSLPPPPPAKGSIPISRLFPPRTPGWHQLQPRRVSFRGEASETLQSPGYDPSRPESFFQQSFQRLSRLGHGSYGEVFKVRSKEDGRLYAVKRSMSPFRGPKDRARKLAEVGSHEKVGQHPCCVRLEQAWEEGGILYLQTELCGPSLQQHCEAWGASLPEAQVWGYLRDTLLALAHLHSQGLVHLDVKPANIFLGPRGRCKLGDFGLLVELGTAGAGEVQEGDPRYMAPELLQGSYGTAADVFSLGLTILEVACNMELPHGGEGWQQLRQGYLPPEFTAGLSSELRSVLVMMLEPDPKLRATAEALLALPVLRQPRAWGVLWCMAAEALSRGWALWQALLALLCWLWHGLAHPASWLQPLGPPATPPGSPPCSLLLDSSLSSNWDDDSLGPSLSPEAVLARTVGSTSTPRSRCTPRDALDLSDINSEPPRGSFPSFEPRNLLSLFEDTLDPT

Sequence of LCK (P06239 whole entry): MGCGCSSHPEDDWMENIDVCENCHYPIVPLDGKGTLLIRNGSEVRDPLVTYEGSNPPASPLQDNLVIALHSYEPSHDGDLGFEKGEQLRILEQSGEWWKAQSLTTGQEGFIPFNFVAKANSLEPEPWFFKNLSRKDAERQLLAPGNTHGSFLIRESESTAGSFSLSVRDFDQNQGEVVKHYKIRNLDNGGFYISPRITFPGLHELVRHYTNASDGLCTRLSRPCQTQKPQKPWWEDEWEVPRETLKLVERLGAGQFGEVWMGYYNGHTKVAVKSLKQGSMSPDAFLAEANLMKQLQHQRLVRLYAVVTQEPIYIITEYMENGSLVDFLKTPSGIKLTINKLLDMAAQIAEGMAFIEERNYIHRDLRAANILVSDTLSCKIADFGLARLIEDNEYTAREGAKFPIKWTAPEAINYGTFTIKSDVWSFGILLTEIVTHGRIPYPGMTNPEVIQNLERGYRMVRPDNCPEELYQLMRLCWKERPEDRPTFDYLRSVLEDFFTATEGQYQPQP

Compound | IC50 (LCK) [nM] | IC50 (PKMYT1) [nM]
Cc1ncc(O)c(C)c1-n1c(N)c(C(N)=O)c2cc(Cl)cnc21 [Compound 543] | 100 to 1000 | < 50
Cc1ccc(O)c(C)c1-n1c(N)c(C(N)=O)c2cncnc21 [Compound 547, 6-amino-7-(3-hydroxy-2,6-dimethylphenyl)-7H-pyrrolo [2,3-d]pyrimidine-5-carboxamide] | 50 to 100 | < 50
COc1cnc(C)c(-n2c(N)c(C(N)=O)c3cc(Cl)cnc32)c1C [Compound 542, 2-amino-5-chloro-1-(5-methoxy-2,4-dimethylpyridin-3-yl)-1H-pyrrolo[2,3-b]pyridine-3-carboxamide] | 100 to 1000 | > 1000
Cc1cnc2c(c1)c(C(N)=O)c(N)n2-c1c(C)ncc(O)c1C [Compound 561, 2-Amino-1-(5-hydroxy-2,4-dimethyl-3-pyridyl)-5-methyl-pyrrolo[2,3-b]pyridine-3-carboxamide] | 100 to 1000 | 50 to 100
Cc1ccc(O)c(C)c1-n1c(N)c(C(N)=O)c2cnc(CO)nc21 [Compound 592, 6-amino-7-(3-hydroxy-2,6-dimethylphenyl)-2-(hydroxymethyl)-7H-pyrrolo[2,3-d]pyrimidine-5-carboxamide] | 100 to 1000 | 50 to 100
Cc1ccc(O)c(C)c1-n1c(N)c(C(N)=O)c2cnc(NC(=O)[C@@H]3CCCN3)nc21 [Compound 593, (S)-6-amino-7-(3-hydroxy-2,6-dimethylphenyl)-2-(pyrrolidine-2-carboxamido)-7H-pyrrolo[2,3-d]pyrimidine-5-carboxamide] | 100 to 1000 | < 50
Cc1ncc2c(C(N)=O)c(N)n(-c3c(C)cc(F)c(O)c3C)c2n1 [Compound 602, 6-amino-7-(4-fluoro-3-hydroxy-2,6-dimethyl-phenyl)-2-methyl-pyrrolo[2,3-d]pyrimidine-5-carboxamide] | 100 to 1000 | < 50
Cc1ncc2c(C(N)=O)c(N)n(-c3c(C)c(O)cc(F)c3C)c2n1 (atropisomer, axis not shown) [Compound 607, 6-amino-7-(3-fluoro-5-hydroxy-2,6-dimethyl-phenyl)-2-methyl-pyrrolo[2,3-d]pyrimidine-5-carboxamide] | > 1000 | > 1000
Cc1c(O)cc(F)c(C)c1-n1c(N)c(C(N)=O)c2cnc(C3CC3)nc21 (atropisomer, axis not shown) [Compound 656] | < 50 | < 50
Cc1ccc(O)c(C)c1-n1c(N)c(C(N)=O)c2cnc(/C=C/C3CC3)nc21 [Compound 651] | < 50 | < 50
Cc1cc2ccoc2c(C)c1-n1c(N)c(C(N)=O)c2cc(Cl)cnc21 [Compound 544, 2-amino-5-chloro-1-(5,7-dimethylbenzofuran-6-yl)-1H-pyrrolo[2,3-b]pyridine-3-carboxamide] | 100 to 1000 | > 1000
Cc1ccc(O)c(C)c1-n1c(N)c(C(N)=O)c2cnc(-c3ccc(C(C)(C)C)cc3)nc21 [Compound 600, 6-amino-2-(4-(tert-butyl)phenyl)-7-(3-hydroxy-2,6-dimethylphenyl)-7H-pyrrolo[2,3-d]pyrimidine-5-carboxamide] | 100 to 1000 | 100 to 1000
Cc1c(O)cc(F)c(C)c1-n1c(N)c(C(N)=O)c2cc(Cl)cnc21 (single isomer, unassigned) [Compound 576, 2-amino-5-chloro-1-(3-fluoro-5-hydroxy-2,6-dimethylphenyl)-1H-pyrrolo[2,3-b]pyridine-3-carboxamide] | 100 to 1000 | 100 to 1000
Cc1nc(C)c2c(C(N)=O)c(N)n(-c3c(C)ccc(O)c3C)c2n1 [Compound 566, 6-amino-7-(3-hydroxy-2,6-dimethylphenyl)-2,4-dimethyl-7H-pyrrolo[2,3-d]pyrimidine-5-carboxamide] | 100 to 1000 | < 50
Cc1ncc2c(C(N)=O)c(N)n(-c3c(C)cc4[nH]c(=O)oc4c3C)c2n1 [Compound 680] | > 1000 | > 1000
Cc1ccc(O)c(C)c1-n1c(N)c(C(N)=O)c2cnc(C3CC3)c(F)c21 [Compound 605, 2-amino-6-cyclopropyl-7-fluoro-1-(3-hydroxy-2,6-dimethylphenyl)-1H-pyrrolo[3,2-c]pyridine-3-carboxamide] | < 50 | < 50

Second part, the compound after the results:

IC50 (LCK) [nM] | IC50 (PKMYT1) [nM] | Compound
< 50 | < 50 | Cc1cnc2c(c1)c(C(N)=O)c(N)n2-c1c(C)ccc(O)c1N [Compound 556, 2-amino-1-(2-amino-3-hydroxy-6-methylphenyl)-5-methyl-1H-pyrrolo[2,3-b]pyridine-3-carboxamide]
< 50 | < 50 | Cc1ccc(O)c(C)c1-n1c(N)c(C(N)=O)c2cnc(CCc3cscn3)c(F)c21 [Compound 638]
< 50 | < 50 | Cc1cc(F)c(O)c(C)c1-n1c(N)c(C(N)=O)c2cc(Cl)cnc21 [Compound 603, 2-amino-5-chloro-1-(4-fluoro-3-hydroxy-2,6-dimethyl-phenyl)pyrrolo[2,3-b]pyridine-3-carboxamide]
< 50 | < 50 | Cc1ccc(O)c(C)c1-n1c(N)c(C(N)=O)c2cnc(C3CC3)c(C#N)c21 [Compound 662]
< 50 | 50 to 100 | Cc1ccc(O)c(C)c1-n1c(N)c(C(N)=O)c2cnc(C#CC(F)(F)F)nc21 [Compound 648]
< 50 | < 50 | Cc1ccc(O)c(C)c1-n1c(N)c(C(N)=O)c2cnc(NCCO)nc21 [Compound 559, 6-amino-7-(3-hydroxy-2,6-dimethylphenyl)-2-((2-hydroxyethyl)amino)-7H-pyrrolo[2,3-d]pyrimidine-5-carboxamide]
< 50 | < 50 | CCc1c(O)cc(F)c(C)c1-n1c(N)c(C(N)=O)c2cnc(C)nc21 [Compound 659]
< 50 | < 50 | Cc1c(O)cc(F)c(C)c1-n1c(N)c(C(N)=O)c2cc(Cl)cnc21 [Compound 565, 2-amino-5-chloro-1-(3-fluoro-5-hydroxy-2,6-dimethylphenyl)-1H-pyrrolo[2,3-b]pyridine-3-carboxamide]
< 50 | < 50 | Cc1ccc(O)c(C)c1-n1c(N)c(C(N)=O)c2cnc(CCc3cncs3)c(F)c21 [Compound 642]
< 50 | < 50 | CCc1c(O)cc(F)c(C)c1-n1c(N)c(C(N)=O)c2cnc(C3CC3)c(C#N)c21 [Compound 673, 2-amino-7-cyano-6-cyclopropyl-1-(2-ethyl-5-fluoro-3-hydroxy-6-methyl-phenyl)pyrrolo[3,2-c]pyridine-3-carboxamide]
< 50 | < 50 | Cc1ccc(O)c(C)c1-n1c(N)c(C(N)=O)c2cnc(CCc3nccs3)c(F)c21 [Compound 649]
< 50 | < 50 | CCc1ncc2c(C(N)=O)c(N)n(-c3c(C)ccc(O)c3C)c2c1F [Compound 604, 2-amino-6-ethyl-7-fluoro-1-(3-hydroxy-2,6-dimethyl-phenyl)pyrrolo[3,2-c]pyridine-3-carboxamide]
< 50 | < 50 | Cc1c(O)cc(F)c(C)c1-n1c(N)c(C(N)=O)c2cncc(F)c21 [Compound 599, 2-amino-7-fluoro-1-(3-fluoro-5-hydroxy-2,6-dimethylphenyl)-1H-pyrrolo[3,2-c]pyridine-3-carboxamide]
